# Results published in patent US8680253B2 (OliPass Corporation, priority 2008, dated 2014).
# {Fam-L(1)L(1)} = N-terminal fluorescein (Fam) label attached through two L(1) linkers; {Fam-L(2)} = N-terminal fluorescein (Fam) label attached through linker L(2); {Lys-NH2} = C-terminal lysine amide
# What was measured:
# HeLa cells = test: Cell penetration of fluorescein-tagged PNA oligomers, confocal fluorescence microscopy; type: cell-based, human; conditions: 40× objective
# Protocol: (§1) In order to evaluate the cell penetration ability of PNA oligomers of this invention, cancer cells of human origin were treated with PNA oligomers covalently tagged with fluorescein. The applied method is provided in brief as follows.
# (§2) To each cover glass (autoclaved) placed in each well of a 24-well plate, were seeded 20,000˜100,000 cells depending on the growth rate of the cell line used, and the cells were cultured at 37° C. and 5% CO2 for 16 to 24 h. Then the medium was replaced with 500 μl fresh Opti-MEM medium (with or without 1% FBS), to which was added an aliquot of aq stock solution of a PNA oligomer covalently tagged with fluorescein. After cells were cultured for a designated interval, the cells were washed with PBS, and fixed by incubating in 3.7% or 4% paraformaldehyde. The cells were thoroughly washed several times with PBS or PBS containing 0.1% Tween-20. Then the cover glass was mounted onto a slide glass using a drop of mounting solution and sealed with nail polish for confocal fluorescence microscopy. Fluorescence images were taken either on a Zeiss LSM 510 confocal microscope (Germany) at 63× objective or on a Nikon C1Si confocal microscope at 40× objective.
# MCF-7 cells = test: as above; type: cell-based, human; conditions: 2.5 μM, 0.5 and 1 h, without FBS, 63× objective
# Protocol: as §1, §2
# JAR cells = test: as above; type: cell-based, human; conditions: 2 μM, 24 h, without FBS, 40× objective
# Protocol: as §1, §2
# A549 cells = test: as above; type: cell-based, human; conditions: 2 μM, 24 h, without FBS, 40× objective
# Protocol: as §1, §2
# apoB-100 = conditions: a certain population of atherosclerosis patients; cited from earlier work
substance,measurement,setting,value
"Fam-L(1)L(1)-TC(1O3)T-CC(1O3)C-AGC(1O3)-GTG-C(1O3)GC-C(1O3)AT-Lys-NH2 (TCTCCCAGCGTGCGCCAT; Fam-L(1)L(1) label, modified PNA, Lys-NH2, chemistry not fully specified) [Oligo 6, fluorescein-tagged modified PNA oligomer]","cell penetration, fluorescence intensity","HeLa cells; 1 μM, 6 or 24 h, with 1% FBS",fluorescence intensity is clear and becomes intense over 24 h
same,"cell penetration, fluorescence intensity",MCF-7 cells,fluorescence intensity is clear and becomes intense over 1 h
"Fam-L(1)L(1)-TCT-CCC-AGC-GTG-CGC-CAT-Lys-NH2 (TCTCCCAGCGTGCGCCAT; all peptide nucleic acid (PNA), 5' {Fam-L(1)L(1)}, 3' {Lys-NH2}) [Oligo 7, fluorescein-tagged 'unmodified' PNA oligomer, reference compound]","cell penetration, fluorescence intensity",MCF-7 cells,fluorescence intensity is faint
"Fam-L(2)-TGG-CAA-CTG-AT-Lys-NH2 (TGGCAACTGAT; all peptide nucleic acid (PNA), 5' {Fam-L(2)}, 3' {Lys-NH2}) [Oligo 28, fluorescein-tagged 'unmodified' PNA oligomer, reference compound]","cell penetration, fluorescence intensity",JAR cells,no significant fluorescence intensity
same,"cell penetration, fluorescence intensity","HeLa cells; 2 μM, 12 h, without FBS",no significant fluorescence intensity
same,"cell penetration, fluorescence intensity",A549 cells,no significant fluorescence intensity
Mipomersen,clinical activity,apoB-100,due clinical activity
